Reference: patent US20240002438A1, “MELANOCORTIN LIGANDS AND METHODS OF USE THEREOF” (REGENTS OF THE UNIVERSITY OF MINNESOTA, priority 2021, published 2024)
Read-outs that look alike come from different tables or passages of the source. One block for each compound: values may come before it. Where a SMILES comes first, the peptide text is derived from it. Primed or numbered codes have the meaning given here. [ ]: non-standard residue; d: D form. dBip = N[C@H](Cc1ccc(-c2ccccc2)cc1)C(=O)O; Oic = O=C(O)[C@@H]1C[C@@H]2CCCC[C@@H]2N1; dPhe(4-I) = N[C@H](Cc1ccc(I)cc1)C(=O)O; 2Nal = N[C@@H](Cc1ccc2ccccc2c1)C(=O)O; d2Nal = N[C@H](Cc1ccc2ccccc2c1)C(=O)O; Nle = CCCC[C@H](N)C(=O)O; Pip′ = not defined here

How the values were obtained:
MC4R [1] = biological target: T1, MC4R (Homo sapiens, UniProt P32245); conditions: Nozawa 2007; cited from earlier work
Target sequence in this assay (P32245 whole entry): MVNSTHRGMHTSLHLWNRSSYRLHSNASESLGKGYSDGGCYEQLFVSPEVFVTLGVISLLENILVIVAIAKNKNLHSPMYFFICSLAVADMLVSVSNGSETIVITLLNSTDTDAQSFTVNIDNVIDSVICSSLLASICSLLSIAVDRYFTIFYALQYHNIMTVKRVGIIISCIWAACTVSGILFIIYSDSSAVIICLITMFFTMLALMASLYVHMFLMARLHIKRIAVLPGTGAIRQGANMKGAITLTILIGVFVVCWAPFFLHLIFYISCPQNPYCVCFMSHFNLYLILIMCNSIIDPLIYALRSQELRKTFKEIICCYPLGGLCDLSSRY

mMC1R [2] = biological target: T2, mMC1R (Mus musculus, UniProt Q01727); conditions: for mMC1R agonist activity: up to 100 μM
Protocol: (§1) Following stimulation, streptavidin donor beads (0.5 μg) and biotinylated-cAMP (0.62 μmol) were added to the wells in a green light environment with 10 μL of lysis buffer (5 mM HEPES, 0.3% Tween-20, 0.1% BSA, pH=7.4) and the plates were incubated in the dark at room temperature for an additional 2 h. Plates were read on a Enspire (PerkinElmer) Alpha-plate reader using a pre-normalized assay protocol (set by the manufacturer).

mMC3R [3] = biological target: T3, mMC3R (Mus musculus, UniProt P33033); experiment: cAMP AlphaScreen agonist assay at mMC3R, HEK293 cells; conditions: up to 100 μM
Protocol: as §1

mMC4R [4] = biological target: T4, mMC4R (Mus musculus, UniProt P56450); experiment: cAMP AlphaScreen agonist assay at mMC4R, HEK293 cells; conditions: for mMC4R agonist activity: up to 100 μM
Protocol: as §1

mMC5R [5] = biological target: T5, mMC5R (Mus musculus, UniProt P41149); experiment: cAMP AlphaScreen agonist assay at mMC5R, HEK293 cells; conditions: for mMC5R agonist activity: up to 100 μM
Protocol: as §1

mMC1R [6] = biological target: T2, mMC1R; experiment: cell-based
Protocol: as §1

mMC4R [7] = biological target: T4, mMC4R; experiment: cAMP AlphaScreen antagonist assay at mMC4R, NDP-MSH as agonist, HEK293 cells; conditions: for mMC4R antagonist pA2: NDP-MSH as agonist, HEK293 cells stably expressing mMC4R
Protocol: as §1

mMC4R [8] = biological target: T4, mMC4R; parameters: expressed in transfected cells; host or cells: HEK293; conditions: Doering 2017; cited from earlier work
mMC3R [9] = biological target: T3, mMC3R; parameters: expressed in transfected cells; host or cells: HEK293; conditions: Doering 2017; cited from earlier work
mMC3R [10] = biological target: T3, mMC3R; parameters: expressed in transfected cells; host or cells: HEK293; conditions: Doering 2017; cited from earlier work; remark: listed apart in the source
mMC4R [11] = biological target: T4, mMC4R; parameters: expressed in transfected cells; host or cells: HEK293; conditions: cited from earlier work
mMC5R [12] = biological target: T5, mMC5R; parameters: expressed in transfected cells; host or cells: HEK293; conditions: Doering 2017; cited from earlier work
mMC3R [13] = biological target: T3, mMC3R; experiment: cAMP AlphaScreen antagonist assay at mMC3R, NDP-MSH as agonist, HEK293 cells; conditions: for mMC3R antagonist pA2: NDP-MSH as agonist, HEK293 cells stably expressing mMC3R
MC3R [14] = biological target: T6, MC3R (Homo sapiens, UniProt P41968); conditions: Grieco 2002; cited from earlier work
Target sequence in this assay (P41968 whole entry): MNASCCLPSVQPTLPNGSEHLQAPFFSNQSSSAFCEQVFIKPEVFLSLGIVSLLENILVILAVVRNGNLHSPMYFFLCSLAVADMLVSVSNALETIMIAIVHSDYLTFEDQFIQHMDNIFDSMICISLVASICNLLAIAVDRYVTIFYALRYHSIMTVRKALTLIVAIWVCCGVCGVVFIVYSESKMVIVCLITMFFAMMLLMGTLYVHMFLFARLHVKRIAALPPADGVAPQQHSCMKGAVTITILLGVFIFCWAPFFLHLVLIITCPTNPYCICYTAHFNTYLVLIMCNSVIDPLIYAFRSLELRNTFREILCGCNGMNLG

MC4R [15] = biological target: T1, MC4R; conditions: Grieco 2002; cited from earlier work
Target sequence in this assay (P32245 whole entry): as the sequence (P32245 whole entry) above

MC5R [16] = biological target: T7, MC5R (Homo sapiens, UniProt P33032); conditions: Bednarek, cited from earlier work
human (h)MC4R = human (h)MC4R (Homo sapiens, UniProt P32245); conditions: Chaki 2003; read-out: binding affinity at hMC4R; cited from earlier work
MC3R [17] = biological target: T6, MC3R; conditions: Chaki 2003; read-out: binding affinity at hMC3R; cited from earlier work
Target sequence in this assay (P41968 whole entry): as the sequence (P41968 whole entry) above

MC1R [18] = biological target: T8, MC1R (Homo sapiens, UniProt Q01726); conditions: unable to displace at up to this concentration; Chaki 2003; read-out: displacement of radiolabeled NDP-MSH at hMC1R; cited from earlier work
Target sequence in this assay (Q01726 whole entry): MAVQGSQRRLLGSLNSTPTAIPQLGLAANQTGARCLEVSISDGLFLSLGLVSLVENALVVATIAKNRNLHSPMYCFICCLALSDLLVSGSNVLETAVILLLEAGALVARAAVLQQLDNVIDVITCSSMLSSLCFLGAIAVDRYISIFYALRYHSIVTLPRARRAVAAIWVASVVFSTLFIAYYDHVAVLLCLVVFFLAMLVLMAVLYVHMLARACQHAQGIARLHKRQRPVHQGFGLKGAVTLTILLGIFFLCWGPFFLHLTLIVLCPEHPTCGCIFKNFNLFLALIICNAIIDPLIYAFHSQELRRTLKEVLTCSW

MC5R [19] = biological target: T7, MC5R; conditions: Bednarek, cited from earlier work; remark: listed apart in the source
MC1R [20] = biological target: T8, MC1R; conditions: at 2 μM; cited from earlier work
Target sequence in this assay (Q01726 whole entry, species assumed): as the sequence (Q01726 whole entry) above

MC3R [21] = biological target: T6, MC3R; conditions: at 2 μM; cited from earlier work
Target sequence in this assay (P41968 whole entry, species assumed): as the sequence (P41968 whole entry) above

MC4R [22] = biological target: T1, MC4R; conditions: at 2 μM; cited from earlier work
Target sequence in this assay (P32245 whole entry, species assumed): as the sequence (P32245 whole entry) above

MC1R [23] = biological target: T8, MC1R; conditions: unable to displace at up to this concentration; read-out: displacement of NDP-MSH at the MC1R; cited from earlier work
Target sequence in this assay (Q01726 whole entry, species assumed): as the sequence (Q01726 whole entry) above

MC3R [24] = biological target: T6, MC3R; conditions: unable to displace at up to this concentration; read-out: displacement of NDP-MSH at the MC3R; cited from earlier work
Target sequence in this assay (P41968 whole entry, species assumed): as the sequence (P41968 whole entry) above

MC4R [25] = biological target: T1, MC4R; conditions: unable to displace at up to this concentration; read-out: displacement of NDP-MSH at the MC4R; cited from earlier work
Target sequence in this assay (P32245 whole entry, species assumed): as the sequence (P32245 whole entry) above

[26] = Solubility in solvents compatible with RP-HPLC

T4 sequence (P56450 whole entry): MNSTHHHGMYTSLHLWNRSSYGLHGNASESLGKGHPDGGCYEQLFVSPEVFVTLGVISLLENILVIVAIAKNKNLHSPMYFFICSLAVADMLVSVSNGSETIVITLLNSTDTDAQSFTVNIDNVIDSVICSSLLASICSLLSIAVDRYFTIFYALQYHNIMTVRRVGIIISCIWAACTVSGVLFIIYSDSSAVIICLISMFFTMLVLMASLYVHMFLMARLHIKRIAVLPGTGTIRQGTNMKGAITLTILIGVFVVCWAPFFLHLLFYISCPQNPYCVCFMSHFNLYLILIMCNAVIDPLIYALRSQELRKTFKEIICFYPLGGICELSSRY
T5 sequence (P41149 whole entry): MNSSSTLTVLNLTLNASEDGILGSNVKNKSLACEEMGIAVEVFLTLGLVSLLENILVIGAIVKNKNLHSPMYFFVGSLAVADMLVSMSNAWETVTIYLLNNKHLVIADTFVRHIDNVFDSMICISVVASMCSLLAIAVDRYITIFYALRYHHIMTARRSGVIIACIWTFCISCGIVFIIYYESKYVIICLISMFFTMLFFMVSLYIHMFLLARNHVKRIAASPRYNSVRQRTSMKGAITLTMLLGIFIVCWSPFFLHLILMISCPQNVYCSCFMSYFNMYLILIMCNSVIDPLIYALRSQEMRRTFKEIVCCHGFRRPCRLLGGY
T2 sequence (Q01727 whole entry): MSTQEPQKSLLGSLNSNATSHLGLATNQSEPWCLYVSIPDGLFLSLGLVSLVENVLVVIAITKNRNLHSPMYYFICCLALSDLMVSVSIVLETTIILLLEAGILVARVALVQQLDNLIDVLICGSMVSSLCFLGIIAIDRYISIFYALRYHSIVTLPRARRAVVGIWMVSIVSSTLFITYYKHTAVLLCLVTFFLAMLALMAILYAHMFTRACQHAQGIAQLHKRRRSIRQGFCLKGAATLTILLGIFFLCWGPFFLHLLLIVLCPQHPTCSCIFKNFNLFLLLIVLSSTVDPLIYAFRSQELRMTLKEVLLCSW
T3 sequence (P33033 whole entry): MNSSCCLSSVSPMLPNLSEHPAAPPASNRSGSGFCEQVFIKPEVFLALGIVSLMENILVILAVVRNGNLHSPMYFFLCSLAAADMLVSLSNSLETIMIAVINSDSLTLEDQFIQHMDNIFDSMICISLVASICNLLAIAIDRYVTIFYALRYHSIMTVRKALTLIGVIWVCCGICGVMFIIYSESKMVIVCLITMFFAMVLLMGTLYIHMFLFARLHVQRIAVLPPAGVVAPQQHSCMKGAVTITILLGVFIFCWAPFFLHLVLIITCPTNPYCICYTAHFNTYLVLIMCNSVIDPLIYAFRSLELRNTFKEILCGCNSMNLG
T7 sequence (P33032 whole entry, species assumed): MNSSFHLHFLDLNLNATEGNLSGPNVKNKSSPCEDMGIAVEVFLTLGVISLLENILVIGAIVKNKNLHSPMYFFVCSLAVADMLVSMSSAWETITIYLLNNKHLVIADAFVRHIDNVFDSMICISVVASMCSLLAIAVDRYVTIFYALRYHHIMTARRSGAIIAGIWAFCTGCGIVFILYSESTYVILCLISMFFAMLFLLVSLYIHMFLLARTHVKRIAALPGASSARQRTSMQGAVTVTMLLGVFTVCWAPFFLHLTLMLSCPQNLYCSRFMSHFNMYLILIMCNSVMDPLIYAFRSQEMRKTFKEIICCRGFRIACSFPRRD
human (h)MC4R, sequence (P32245 whole entry): as the sequence (P32245 whole entry) above

Compound: Ac-DNal(2′)-Arg-DNal(2′)
IC50 (MC4R [1]): 36.5 nM

mMC1R agonist activity (mMC1R [2]): partially stimulate
mMC3R agonist activity (mMC3R [3]): inactive
mMC4R agonist activity (mMC4R [4]): inactive
mMC5R agonist activity (mMC5R [5]): did not possess agonist activity
Compound: Ac-Phe(pI)-Nal(2′)-Phe(pI)-Arg-NH2 [compound 49]

Compound: CC(=O)N[C@H](Cc1ccc2ccccc2c1)C(=O)N[C@@H](CCCNC(=N)N)C(=O)N[C@@H](Cc1ccc2ccccc2c1)C(=O)N[C@H](CCCCN)C(N)=O [compound 22, Ac-DNal(2′)-Arg-Nal(2′)-DLys-NH2] (Ac-[d2Nal]R[2Nal][dK]-NH2)
EC50 (mMC1R [6]): 400 to 7900 nM
mMC4R antagonist pA2 (mMC4R [7]): 7.8

Compound: CC(=O)N[C@H](Cc1ccc2ccccc2c1)C(=O)N[C@@H](CCCNC(=N)N)C(=O)N[C@H](Cc1ccc(I)cc1)C(=O)N[C@H](Cc1ccc2ccccc2c1)C(N)=O [compound 20] (Ac-[d2Nal]R[dPhe(4-I)][d2Nal]-NH2)
EC50 (mMC1R [2]; read-out: mMC1R agonist EC50): 5000 nM
mMC1R agonist activity (mMC1R [2]): full agonist activity
mMC4R antagonist pA2, previously reported (mMC4R [8]): 5.9
mMC3R antagonist pA2, previously reported (mMC3R [9]): 5.6
mMC3R partial agonist efficacy, % of the maximal NDP-MSH signal, previously reported (mMC3R [10]): 40%
mMC4R partial agonist efficacy, % of the maximal NDP-MSH signal, previously reported (mMC4R [11]; Doering 2017): 37%
mMC5R partial agonist efficacy, % of the maximal NDP-MSH signal, previously reported (mMC5R [12]): 43%
mMC4R antagonist pA2 (mMC4R [7]): 6.5
mMC3R antagonist pA2 (mMC3R [13]): 6.1

mMC1R agonist activity (mMC1R [2]): partially stimulate
mMC3R agonist activity (mMC3R [3]): inactive
mMC4R agonist activity (mMC4R [4]): inactive
EC50 (mMC5R [5]): 30 to 800 nM
EC50 (mMC5R [5]; read-out: mMC5R agonist EC50): 130 nM
mMC5R agonist activity (mMC5R [5]): full mMC5R agonists
mMC3R antagonist activity (mMC3R [13]; at the concentrations assayed): did not act as antagonists
Compound: CC(=O)N[C@H](Cc1ccc(I)cc1)C(=O)N[C@H](Cc1ccc2ccccc2c1)C(=O)N[C@H](Cc1ccc(I)cc1)C(=O)N[C@@H](CCCNC(=N)N)C(N)=O [compound 33, Ac-DPhe(pI)-DNal(2′)-DPhe(pI)-Arg-NH2] (Ac-[dPhe(4-I)][d2Nal][dPhe(4-I)]R-NH2)

Compound: Ac-Nle-c[Asp-Pro-DNal(2′)-Arg-Trp-Lys]-NH2 [PG901]
hMC3R antagonist pA2 (MC3R [14]): 9.0
hMC4R antagonist pA2 (MC4R [15]): 9.3

Compound: Ac-Oic-DBip-Pip-Trp-NH2
EC50 (MC5R [16]; Peptides 2007, read-out: agonist potency at the MC5R): 1200 nM

Compound: Ac-DNal(2′)-Arg-Nal(2′) [MCL0020]
IC50 (human (h)MC4R): 11.6 nM
IC50 (MC3R [17]): 1120 nM
IC50 (MC1R [18]): > 10000 nM
IC50 (MC4R [1]): 15.4 nM

mMC4R partial activation, % of the maximal NDP-MSH signal (mMC4R [4]; 100 μM): 25%
MC4R antagonist potency compared to endogenous AGRP(86-132) (mMC4R [7]): about equipotent
mMC4R antagonist pA2 (mMC4R [7]): 9.0
mMC3R antagonist pA2 (mMC3R [13]): 7.8
Compound: Ac-[dPhe(4-I)]R[2Nal]R-NH2 [compound 48]

Compound: Ac-Nle-c[Asp-Oic-DBip-Pip-Trp-Lys]-NH2
EC50 (MC5R [16]; J. Med. Chem. 2007, read-out: concentration activating the MC5R): 0.99 nM
IC50 (MC5R [19]; J. Med. Chem. 2007, read-out: concentration displacing radiolabeled NDP-MSH at the MC5R): 0.95 nM
activation of the MC1R (MC1R [20]): up to 40%
activation of the MC3R (MC3R [21]): up to 40%
activation of the MC4R (MC4R [22]): up to 40%
IC50 (MC1R [23]): > 5000 nM
IC50 (MC3R [24]): > 5000 nM
IC50 (MC4R [25]): > 5000 nM

Compound: Ac-Ser-Tyr-Ser-Nle-Glu-Oic-DBip-Pip-Trp-Gly-Lys-Pro-Val-NH2 (Ac-SYS[Nle]E[Oic][dBip][Pip′]WGKPV-NH2; reading uncertain; also: printed as Ac-Ser-Tyr-Ser-Nle-Glu-Oic-DBip-Pip-Trp-Gly-Lys-Pro-Val-NH2)
MC5R agonist potency (MC5R [16]; Peptides 2007): sub-nanomolar
selectivity for the MC5R by radiolabeled 125I-NDP-MSH displacement (MC5R [19]; Peptides 2007): greater than 3200 fold

Compound: Ac-His-DPhe-Arg-Trp-NH2 [reference compound]
agonist potency at the mMC4R (mMC4R [11]; Haskell-Luevano 2001): nanomolar

Compound: CC(=O)N[C@H](Cc1ccc2ccccc2c1)C(=O)N[C@H](Cc1ccc2ccccc2c1)C(=O)N[C@H](Cc1ccc2ccccc2c1)C(=O)N[C@H](Cc1ccc2ccccc2c1)C(N)=O [Ac-DNal(2′)-DNal(2′)-DNal(2′)-DNal(2′)-NH2] (Ac-[d2Nal][d2Nal][d2Nal][d2Nal]-NH2)
solubility in solvents compatible with RP-HPLC [26]: insoluble
